# Data reported in patent US8835392B2, “Mimetic peptides and the use thereof in the form of 20S, 26S and immunoproteasome inhibitors” (Technische Universität, priority 2005, dated 2014).
# “Also recorded” adds a separate entry of the source. Where a SMILES comes first, the peptide text is derived from it. The star is where a group is joined. Cbz = O=C(OCc1ccccc1)*; Boc = CC(C)(C)OC(=O)*; OtBu = CC(C)(C)O*
# Legend:
# [1] = biological target: T1, 20S proteasome β2 trypsin-like activity (VGR-MCA) (Homo sapiens, UniProt P49720+Q99436); assay: Protease assay, trypsin-like activity of isolated 20S proteasomes; assay type: biochemical; settings: isolated 20S proteasome; VGR-MCA 50 μM; 15 min pre-incubation; read-out: IC50 β2 Trypsin-like (R)
# T1 construct: Proteasomes were isolated from red blood cells; from tissue; host or cells: red blood cells
# Protocol: (§1) Proteasomes were isolated from red blood cells. Cells were lysed with DTT (1 mM), and the stroma-free supernatant was loaded on DEAE-sepharose (Toyopearls). Proteasome was eluted with an NaCl-gradient in TEAD (20 mM TrisCl pH 7.4, 1 mM EDTA, 1 mM azide, 1 mM DTT) of 100 to 300 mM NaCl. Proteasome was concentrated using ammonium sulfate-precipitation (between 40 and 70% saturation) and was separated in a 10-40% sucrose-gradient through centrifugation at 40.000 rpm for 16 hours (SW40; L7, Beckman & Coulter). Finally, the proteasomes were purified on a MonoQ-column and eluted with an NaCl-gradient at about 280 mM NaCl. The fractions containing purified proteasome were dialysed against 50 mM NaCl in TEAD and stored on ice. The purity was determined using SDS-PAGE.
# (§2) Suc-LLVY-AMC, Z-VGR-AMC and LLE-AMC (BACHEM, Calbiochem) was used, in order to determine the chymotrypsin-like, trypsin-like or caspase-like (post-acidic)-activities of the proteasome. Substrate was incubated with proteasome at 37° C. in assay-buffer (20 mM Tris/Cl, pH 7.2, 1 mM EDTA, 1 mM DTT) for one hour. 100 ng proteasome was pre-incubated with 0.01-10 μM of the inhibitor for […]. The reaction was started by the addition of substrate (50 μM). The AMC as released was detected using fluorescence emission at 460 nm (excitation at 390 nm) using a TECAN-fluorimeter. The activity was calculated in fluorescence-units. The inhibition is depicted by IC50-values.
# (§3) The effects thereof were compared with the one of the commonly used proteasomal inhibitor 3 (MG132). The chymotrypsin-like (Suc-LLVY-AMC), the trypsin-like (Bz-VGR-AMC), and the caspase-like (Z-LLE-AMC)-activities of 20S proteasomes were determined following incubation for one hour at 37° C.
# (§4) The IC50-values form the inhibition of the proteasome were calculated at increasing concentrations of the inhibitor. The samples were pre-incubated for 15 min in ice. The assay was started through the addition of 50 μM of one of the following fluorogenic peptide substrates:
# (§5) The release of MCA was determined at 460 nm emission (excitation 390 nm). The IC50-values as calculated for MG132 served as controls.
# [2] = biological target: T2, 20S proteasome β1 caspase-like activity (LLE-MCA) (Homo sapiens, UniProt P28072+Q99436); assay: Protease assay, caspase-like activity of isolated 20S proteasomes; assay type: biochemical; settings: isolated 20S proteasome; LLE-MCA 50 μM; 15 min pre-incubation; read-out: IC50 β1 Caspase-like (E)
# T2 construct: Proteasomes were isolated from red blood cells; from tissue; host or cells: red blood cells
# Protocol: as §1, §2, §3, §4, §5
# [3] = test system: Human melanoma cells (MeWo); assay: Viability of human melanoma cells (MeWo), crystal violet-staining; assay type: cell-based; settings: Homo sapiens, 72 h, read-out: concentration at rate of survival of 50% of the cells
# Protocol: (§6) A, Human melanoma cells (MeWo) were treated with increasing concentrations of the compounds 15 or 3 (MG132) for 72 hours. The viability of the cells after the treatment with compound 15 (-♦-) and with MG132 (-□-) was detected by a crystal-violet-staining. B and C, MeWo cells were co-cultivated with the compounds 15 and 3 (MG132) for 24 hours. The cells were subsequently fixed in 70% ethanol, and treated with RNAse A. The DNA was stained with propidium iodide (5 μg/ml), and analysed by means of FACS (FACS Calibur flow cytometer; Beckton Dickinson). The statistical significance was detected by the chi-square-test. The relative distribution of the cells that were present in the G1-(black), in the S-(white) or in the G2 phase (hatched) of the cellular cycle is shown for both compounds as examined (15 in B and MG132 in C).
# Human melanoma cells (MeWo) were incubated for 72 h with different concentrations of the inhibitor 15 and 28, and the viability of the cells was determined by means of crystal violet-staining (FIG. 8).
# Fibroblasts = assay: Viability of fibroblasts (control); assay type: cell-based; settings: Fibroblast, identical conditions (72 h), read-out: concentration for 50% reduction of the viability
# [4] = test system: Human melanoma cells (MeWo); assay: Cell cycle arrest in MeWo cells, propidium iodide FACS; assay type: cell-based; settings: 24 hours
# Protocol: as §6
# Human melanoma cells (MeWo) were with the compounds 15 and 3 (MG132) for 24 hours co-cultivated. The cells were washed with PBS, in 70% ethanol fixed and subsequently treated with RNAse A. The DNA was stained with propidium iodide (5 μg/ml) and analysed by means of flow-cytometry (FACS Calibur flow cytometer; Beckton Dickinson). The relative dispersion of the cells that were present in different phases of the cell cycle, could thus be detected. […] The statistical significance was detected by the Chi-square test.
# [5] = biological target: T3, 20S proteasome β5 chymotrypsin-like activity (GLL-MCA) (Homo sapiens, UniProt P20618+P28074); assay: Protease assay, chymotrypsin-like activity of isolated 20S proteasomes (GLL substrate); assay type: biochemical; settings: isolated 20S proteasome; GLL-MCA 50 μM; 15 min pre-incubation; read-out: IC50 β5 Chym.-like (L)
# T3 construct: Proteasomes were isolated from red blood cells; from tissue; host or cells: red blood cells
# Protocol: as §1, §2, §4, §5
# 20S proteasome = test system: T4, 20S proteasome; assay: Inhibition of the different proteasomal activities, summary statements; assay type: biochemical; settings: isolated proteasomes, specific substrates
# T4 construct: Proteasomes were isolated from red blood cells; from tissue; host or cells: red blood cells
# Protocol: The specific inhibition of a single catalytic site is of specific interest for the development of drugs. Thus, the inhibition of the different proteasomal activities of the proteasome was analysed (see also example 6). The different cleavage-preferences of the proteasome were determined by the specific substrate for the hydrophobic (chymotrypsin-like), the trypsine-like and the caspase-like activities of isolated proteasomes.
# as §2, §3
# [6] = biological target: T5, proteasomal activity in HeLa-cells (Homo sapiens, UniProt P20618+P28074); assay: Intracellular inhibition of proteasomes in cultivated HeLa-cells; assay type: cell-based
# T5 construct: endogenous in cells; host or cells: HeLa
# Protocol: A, HeLa-cells were cultivated were 24 hours in the presence of the inhibitor. The protein concentration was determined in accordance with the cellular lysis according to Bradford in order to normalise the proteasomal activities to the different amounts of cells. Subsequently Complete (Roche) was added to all lysates, and the proteasomal activity was determined through the hydrolysis of Suc-LLVY-AMC. B, HeLa-cells was incubated with 1 μM of compound 15 for 2, 4, 6 and 24 hours. Cells were lysed, and proteins were separated through SDS-PAGE on a 10% gel, blotted to a PVDF-membrane. The accumulation of the poly-ubiquitinylated proteins was detected in a Western blot by an anti-ubiquitine-antibody (DAKO). C, HeLa-Cells were treated with increasing concentrations of the inhibitor 15, 25, 26, 27, and 28 for 24 hours (lane 1: without inhibitor; lane 2: 10 nM; lane 3: 100 nM and lane 4: 1 μM of the given inhibitor). Cells were lysed, proteins were separated on 15% gels, and the accumulation of the poly-ubiquitinylated proteins was controlled through Western blot.
# HeLa-Cells were cultivated in RPMI, supplemented with 10% FCS and penicillin/streptomycin, at 5% CO2. Inhibitors were administered from 100×-stock solutions (in DMSO) at the final concentrations as indicated, and incubated with the cells for at least 20 hours.
# Cultivated cells (HeLa) were harvested lysed and with 0.1% NP40 in TEAD in the presence of the commercially available protease-inhibitor-mixture Complete (Roche). The proteasomal activity was measured in 10 μl of the lysate using Suc-LLVY-AMC as a substrate. The protein content was quantified by means of Bradford (Protein assay; BioRad).
# An application on cell cultures or animals requires that the concentrations of the inhibitors are chose as low as required. The specific proteasomal activity was reduced to a value of below 50% in cells that were treated with 1 μM of the compounds 15, 22, 25, 26, or 28, respectively (FIG. 6A).
# [7] = biological target: T6, 20S proteasome β5 chymotrypsin-like activity (Suc-LLVY-AMC) (Homo sapiens, UniProt P20618+P28074); assay: Protease assay, chymotrypsin-like activity of isolated 20S proteasomes (LLVY substrate); assay type: biochemical; settings: isolated 20S proteasome; LLVY-MCA 50 μM; 15 min pre-incubation; read-out: IC50 β5 Chymotrypsin-like (Y)
# T6 construct: Proteasomes were isolated from red blood cells; from tissue; host or cells: red blood cells
# Protocol: as §1, §2
# The chymotrypsin-like (Suc-LLVY-AMC), the trypsin-like (Bz-VGR-AMC), and the caspase-like (Z-LLE-AMC)-activities of 20S proteasomes were determined following incubation for one hour at 37° C.
# as §4, §5
# [8] = test system: caspase 3/7 activation in HeLa-cells; assay: Apoptosis-assay, caspase 3/7-activity (Apo-One); assay type: cell-based; settings: 1 μM, 20 hours
# Protocol: HeLa-cells that were cultivated for 20 hours in the presence of the given inhibitor, were subsequently incubated for 2 hours with caspase-substrate (Apo-One; Promega). The activation of caspases 3/7 was measured at 538 nm (excitation at 485 nm). Treatment of the cells with TNFα or with MG132 served as control.
# For this, 10,000 HeLa-cells pro well were seeded in a 96-well-plate, and co-cultivated for 20 hours with 1 μM of the inhibitors 7, 8, 11, 13-16, 18, 20-23 and 25-28. The induction of apoptosis was determined by measuring of the caspase 3/7-activity (Apo-One®-Assay, Promega).
IC50 [2],IC50 [5],"reduction of the specific proteasomal activity in cells ([6]; HeLa cells, 1 μM)",IC50 [7],membrane-permeation ([6]; cultivated cells),stability during the incubation periods ([6]; cultivated cells),"proteasomal activity reduced to ([6]; cultivated cells, remaining activity)",SMILES,IC50 [1],IC50 [3],IC50 (Fibroblasts),concentration giving arrest of the cell cycle in the G2 phase [4],which proteasomal activities are inhibited (site selectivity) (20S proteasome),induction of apoptosis (activation of caspase 3 and 7) [8]
98 nM,102 nM,markedly reduction,–,–,–,–,CC(C)C[C@@H](C=O)NC(=O)[C@H](CC(=O)OC(C)(C)C)NC(=O)[C@H](CC(C)C)NC(=O)OC(C)(C)C [Compound 13] (Boc-Leu-Asp(OtBu)-Leu-aldehyde),–,–,–,–,inhibited all of the proteasomal hydrolytic activities,–
> 10000 nM,> 10000 nM,–,> 10000 nM,–,–,–,CC(C)C[C@@H](C=O)NC(=O)[C@H](CC(=O)O)NC(=O)[C@@H](N)CC(C)C [Compound 14] (H-Leu-Asp-Leu-aldehyde),> 10 µM,–,–,–,–,–
1720 nM,–,–,441 nM,membrane-permeation,sufficient stability,10%,CC(C)C[C@H](NC(=O)OCc1ccccc1)C(=O)N[C@@H](CC(C)C)C(=O)N[C@@H](CC(C)C)C(=O)C(=O)NCc1ccccc1 [Compound 26],–,–,–,–,inhibited the chymotryptic and the caspase-like sites,beginning apoptosis; also recorded: strong induction of apoptosis

SMILES,IC50 [2],IC50 [5],"reduction of the specific proteasomal activity in cells ([6]; HeLa cells, 1 μM)",IC50 [7],membrane-permeation ([6]; cultivated cells),stability during the incubation periods ([6]; cultivated cells),"proteasomal activity reduced to ([6]; cultivated cells, remaining activity)",IC50 [1],IC50 [3],IC50 (Fibroblasts),concentration giving arrest of the cell cycle in the G2 phase [4],which proteasomal activities are inhibited (site selectivity) (20S proteasome),induction of apoptosis (activation of caspase 3 and 7) [8]
"CC(C)C[C@@H](C=O)NC(=O)[C@H](CC(C)C)NC(=O)[C@H](CC(C)C)NC(=O)OCc1ccccc1 [Compound 3, reference compound] (Cbz-Leu-Leu-Leu-aldehyde)",2290 nM,–,–,–,–,–,–,9.22 µM,35 nM,500 to 1000 nM,100 nM,–,–
